We go through 30 compounds from patent publication US10988478B1, “Pyrazolo[1,5a]pyrimidine derivatives as IRAK4 modulators” (Genentech, Inc., priority 2015, dated 2021).

The target of this test is human IRAK4 (Homo sapiens (Human), UniProt Q9NWZ3). In words: IRAK4 kinase inhibition, Transcreener fluorescence polarization ADP assay. It counts as biochemical. The note with it: recombinant full-length His6-IRAK4; 125 uM ATP; 90 min; Ki computed using ATP Km 642 uM. The method, then: Compounds were assayed for inhibition of human IRAK4 and IRAK1 catalytic activity using recombinant enzyme produced from insect cells. Full-length IRAK4 protein, carrying an N-terminal His6-Tag, was obtained from Life Technologies (Carlsbad, Calif., USA). The IRAK1 construct was produced internally and was comprised of IRAK1 residues Arg194 to Ser712, preceded by an NH2-terminal His6 tag and the coding sequence for glutathione-S-transferase.
human IRAK4, sequence (Q9NWZ3 whole entry, the tested form may be a part): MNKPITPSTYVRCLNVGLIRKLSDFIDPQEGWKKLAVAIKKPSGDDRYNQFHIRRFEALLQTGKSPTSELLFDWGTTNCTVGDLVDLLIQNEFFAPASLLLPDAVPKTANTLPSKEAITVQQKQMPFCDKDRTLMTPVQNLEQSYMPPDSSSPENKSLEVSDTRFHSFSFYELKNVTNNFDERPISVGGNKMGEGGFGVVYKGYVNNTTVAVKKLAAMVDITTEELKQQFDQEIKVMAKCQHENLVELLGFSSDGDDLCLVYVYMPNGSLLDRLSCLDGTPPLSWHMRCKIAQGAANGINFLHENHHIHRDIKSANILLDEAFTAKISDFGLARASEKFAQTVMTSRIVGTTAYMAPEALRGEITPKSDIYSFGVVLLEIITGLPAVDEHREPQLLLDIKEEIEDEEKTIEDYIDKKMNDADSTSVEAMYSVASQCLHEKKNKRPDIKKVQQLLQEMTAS
(In general: Fluorescence polarisation rises when a labelled molecule tumbles more slowly, as on binding a larger partner.)
Take `CN1CC2(Cc3cc(NC(=O)c4cnn5cccnc45)c(N4CCOCC4)cc3O2)C1` [Example 146, N-(1-methyl-6′-morpholino-3′H-spiro[azetidine-3,2′-benzofuran]-5′-yl)pyrazolo[1,5-a]pyrimidine-3-carboxamide]: the Ki came to 27 nM.
As for `O=C(Nc1cc2c(cc1N1CCOCC1)OC1(C2)CN(CC(F)F)C1)c1cnn2cccnc12` [Example 147, N-(1-(2,2-Difluoroethyl)-6′-morpholino-3′H-spiro[azetidine-3,2′-benzofuran]-5′-yl)pyrazolo[1,5-a]pyrimidine-3-carboxamide], the Ki came to 23 nM.
In the case of `O=C(Nc1cc2c(cc1N1CCOCC1)OC1(C2)CN(CC(F)(F)F)C1)c1cnn2cccnc12` [Example 148, N-[6-Morpholino-1′-(2,2,2-trifluoroethyl)spiro[3H-benzofuran-2,3′-azetidine]-5-yl]pyrazolo[1,5-a]pyrimidine-3-carboxamide], the Ki stood at 6.1 nM.
For `CC1(C)Cc2cc(NC(=O)c3cnn4cccnc34)c(N3CCCN(CC(F)F)CC3)cc2O1` [Example 149, N-(6-(4-(2,2-difluoroethyl)-1,4-diazepan-1-yl)-2,2-dimethyl-2,3-dihydrobenzofuran-5-yl)pyrazolo[1,5-a]pyrimidine-3-carboxamide], the inhibitory constant (Ki) is 25 nM.
`CC(C)C1(C)Cc2cc(NC(=O)c3cnn4cccnc34)c(N3CCOCC3)cc2O1` (stereo not drawn) [Example 150, N-(2-Isopropyl-2-methyl-6-morpholino-2,3-dihydrobenzofuran-5-yl)pyrazolo[1,5-a]pyrimidine-3-carboxamide]: the Ki was found to be 89 nM.
As to `CC(C)(O)CN1CCN(c2cc3c(cc2NC(=O)c2cnn4cccnc24)CC(C)(CO)O3)CC1` (stereo not drawn) [Example 151, N-(6-(4-(2-Hydroxy-2-methylpropyl)piperazin-1-yl)-2-(hydroxymethyl)-2-methyl-2,3-dihydrobenzofuran-5-yl)pyrazolo[1,5-a]pyrimidine-3-carboxamide], the Ki turned out to be 72 nM.
For the compound `CN1CCC2(CC1)Cc1cc(NC(=O)c3cnn4cccnc34)c(N3CCOCC3)cc1O2` [Example 152, N-(1′-Methyl-6-morpholino-3H-spiro[benzofuran-2,4′-piperidine]-5-yl)pyrazolo[1,5-a]pyrimidine-3-carboxamide], the inhibitory constant (Ki) came to 12 nM.
As for `O=C(Nc1cc2c(cc1N1CCOCC1)O[C@](CO)(C(F)(F)F)C2)c1cnn2cccnc12` [Example 153, (R)—N-(2-(hydroxymethyl)-6-morpholino-2-(trifluoromethyl)-2,3-dihydrobenzofuran-5-yl)pyrazolo[1,5-a]pyrimidine-3-carboxamide], the figure is 14 nM; as for `O=C(Nc1cc2c(cc1N1CCOCC1)O[C@@](CO)(C(F)(F)F)C2)c1cnn2cccnc12` [Example 154, (S)—N-(2-(hydroxymethyl)-6-morpholino-2-(trifluoromethyl)-2,3-dihydrobenzofuran-5-yl)pyrazolo[1,5-a]pyrimidine-3-carboxamide], 9.3 nM.
`C[C@]1(COC(F)F)Cc2cc(NC(=O)c3cnn4cccnc34)c(N3CCOCC3)cc2O1` [Example 155, (R)—N-(2-((difluoromethoxy)methyl)-2-Methyl-6-morpholino-2,3-dihydrobenzofuran-5-yl)pyrazolo[1,5-a]pyrimidine-3-carboxamide]: the Ki came out at 22 nM.
`C[C@@]1(COC(F)F)Cc2cc(NC(=O)c3cnn4cccnc34)c(N3CCOCC3)cc2O1` [Example 156, (S)—N-(2-((difluoromethoxy)methyl)-2-Methyl-6-morpholino-2,3-dihydrobenzofuran-5-yl)pyrazolo[1,5-a]pyrimidine-3-carboxamide]: the inhibition constant Ki was 27 nM.
In the case of `CC(C)(O)[C@@]1(C)Cc2cc(NC(=O)c3cnn4cccnc34)c(N3CCOCC3)cc2O1` [Example 157, (R)—N-(2-(2-Hydroxypropan-2-yl)-2-methyl-6-morpholino-2,3-dihydrobenzofuran-5-yl)pyrazolo[1,5-a]pyrimidine-3-carboxamide], the inhibition constant Ki is 8.8 nM.
As to `CC(C)(O)[C@]1(C)Cc2cc(NC(=O)c3cnn4cccnc34)c(N3CCOCC3)cc2O1` [Example 158, (S)—N-(2-(2-Hydroxypropan-2-yl)-2-methyl-6-morpholino-2,3-dihydrobenzofuran-5-yl)pyrazolo[1,5-a]pyrimidine-3-carboxamide], the Ki is 27 nM.
In the case of `C[C@]1(C2CC2)Cc2cc(NC(=O)c3cnn4cccnc34)c(N3CCN(CC(F)F)CC3)cc2O1` [Example 159, (R)—N-(2-Cyclopropyl-6-(4-(2,2-difluoroethyl)piperazin-1-yl)-2-methyl-2,3-dihydrobenzofuran-5-yl)pyrazolo[1,5-a]pyrimidine-3-carboxamide], the inhibitory constant (Ki) came to 4.4 nM.
For the compound `C[C@@]1(C2CC2)Cc2cc(NC(=O)c3cnn4cccnc34)c(N3CCN(CC(F)F)CC3)cc2O1` [Example 160, (S)—N-(2-Cyclopropyl-6-(4-(2,2-difluoroethyl)piperazin-1-yl)-2-methyl-2,3-dihydrobenzofuran-5-yl)pyrazolo[1,5-a]pyrimidine-3-carboxamide], the inhibition constant (Ki) was found to be 4.8 nM.
Regarding `C[C@]1(C2CC2)Cc2cc(NC(=O)c3cnn4cccnc34)c(N3CCC(F)(CO)CC3)cc2O1` [Example 161, (R)—N-(2-Cyclopropyl-6-(4-fluoro-4-(hydroxymethyl)piperidin-1-yl)-2-methyl-2,3-dihydrobenzofuran-5-yl)pyrazolo[1,5-a]pyrimidine-3-carboxamide], the Ki was 3.8 nM.
For the compound `C[C@@]1(C2CC2)Cc2cc(NC(=O)c3cnn4cccnc34)c(N3CCC(F)(CO)CC3)cc2O1` [Example 162, (S)—N-(2-Cyclopropyl-6-(4-fluoro-4-(hydroxymethyl)piperidin-1-yl)-2-methyl-2,3-dihydrobenzofuran-5-yl)pyrazolo[1,5-a]pyrimidine-3-carboxamide], the inhibition constant Ki stood at 4.5 nM.
Take `C[C@]1(CO)Cc2cc(NC(=O)c3cnn4cc(Cl)cnc34)c(N3CCC(CO)CC3)cc2O1` [Example 163, (R)-6-Chloro-N-(2-(hydroxymethyl)-6-(4-(hydroxymethyl)piperidin-1-yl)-2-methyl-2,3-dihydrobenzofuran-5-yl)pyrazolo[1,5-a]pyrimidine-3-carboxamide]: the Ki was 3.9 nM.
As for `C[C@@]1(CO)Cc2cc(NC(=O)c3cnn4cc(Cl)cnc34)c(N3CCC(CO)CC3)cc2O1` [Example 164, (S)-6-Chloro-N-(2-(hydroxymethyl)-6-(4-(hydroxymethyl)piperidin-1-yl)-2-methyl-2,3-dihydrobenzofuran-5-yl)pyrazolo[1,5-a]pyrimidine-3-carboxamide], the figure is 2.8 nM; as for `C[C@@]1(CO)Cc2cc(NC(=O)c3cnn4cc(Cl)cnc34)c(N3CCOCC3)cc2O1` [Example 165, (S)-6-Chloro-N-(2-(hydroxymethyl)-2-methyl-6-morpholino-2,3-dihydrobenzofuran-5-yl)pyrazolo[1,5-a]pyrimidine-3-carboxamide], 5.6 nM; as for `CC1(C)Cc2cc(NC(=O)c3cnn4cc(Cl)cnc34)c(N3CCC4(CCOC4)CC3)cc2O1` [Example 167, 6-Chloro-N-(2,2-dimethyl-6-(2-oxa-8-azaspiro[4.5]decan-8-yl)-2,3-dihydrobenzofuran-5-yl)pyrazolo[1,5-a]pyrimidine-3-carboxamide], 2.8 nM.
To `CC1(CO)Cc2cc(NC(=O)c3cnn4cc(Cl)cnc34)c(N3CCN(CC(F)F)CC3)cc2O1` (stereo not drawn) [Example 168] belongs 3.6 nM.
To `C[C@]1(CO)Cc2cc(NC(=O)c3cnn4cc(Cl)cnc34)c(N3CCN(CC(F)F)CC3)cc2O1` [Example 170, (R)-6-Chloro-N-(6-(4-(2,2-difluoroethyl)piperazin-1-yl)-2-(hydroxymethyl)-2-methyl-2,3-dihydrobenzofuran-5-yl)pyrazolo[1,5-a]pyrimidine-3-carboxamide] belongs 3 nM.
With `C[C@]1(CO)Cc2cc(NC(=O)c3cnn4cccnc34)c(OC(F)(F)F)cc2O1` [Example 171, (R)—N-(2-(Hydroxymethyl)-2-methyl-6-(trifluoromethoxy)-2,3-dihydrobenzofuran-5-yl)pyrazolo[1,5-a]pyrimidine-3-carboxamide], the Ki came to 38 nM.
In the case of `C[C@@]1(CO)Cc2cc(NC(=O)c3cnn4cccnc34)c(OC(F)(F)F)cc2O1` [Example 172, (S)—N-(2-(hydroxymethyl)-2-methyl-6-(trifluoromethoxy)-2,3-dihydrobenzofuran-5-yl)pyrazolo[1,5-a]pyrimidine-3-carboxamide], the Ki was 16 nM.
On to `O=C(Nc1cc2c(cc1N1CCOCC1)C(=O)N(CC(F)(F)F)C2)c1cnn2cccnc12` [Example 173, N-[6-Morpholino-1-oxo-2-(2,2,2-trifluoroethyl)isoindolin-5-yl]pyrazolo[1,5-a]pyrimidine-3-carboxamide], for which the Ki turned out to be 29 nM.
As for `O=C(Nc1cc2c(cc1N1CCOCC1)C(=O)N(CC(F)F)C2)c1cnn2cccnc12` [Example 174, N-[2-(2,2-difluoroethyl)-6-morpholino-1-oxo-isoindolin-5-yl]pyrazolo[1,5-a]pyrimidine-3-carboxamide], the inhibition constant (Ki) was found to be 20 nM.
Consider `CC(C)(O)CCN1Cc2cc(NC(=O)c3cnn4cccnc34)c(N3CCOCC3)cc2C1=O` [Example 175, N-[2-(3-hydroxy-3-methyl-butyl)-6-morpholino-1-oxo-isoindolin-5-yl]pyrazolo[1,5-a]pyrimidine-3-carboxamide], for which the Ki was 2.2 nM.
For the compound `CC(C)(O)CN1Cc2cc(NC(=O)c3cnn4cccnc34)c(N3CCOCC3)cc2C1=O` [Example 176, N-[2-(2-hydroxy-2-methyl-propyl)-6-morpholino-1-oxo-isoindolin-5-yl]pyrazolo[1,5-a]pyrimidine-3-carboxamide], the Ki came out at 51 nM.
On to `NC(=O)CN1CCN(c2cc3c(cc2NC(=O)c2cnn4cccnc24)CN(C2CCOCC2)C3=O)CC1` [Example 177, N-[6-[4-(2-amino-2-oxo-ethyl)piperazin-1-yl]-1-oxo-2-tetrahydropyran-4-yl-isoindolin-5-yl]pyrazolo[1,5-a]pyrimidine-3-carboxamide], for which the Ki was 2 nM.

What is called Ki is the equilibrium dissociation constant of an inhibitor or competing ligand from its target.
